# Test results: article PMC10175918 (Communications Biology, 2023)
# Read-outs that look alike come from different tables or passages of the source.
# Experiments:
# Assay in all cases: TGFα-shedding assay-based GPCR screening with chimeric Gα subunit proteins
# Type in all cases: cell-based
# 348 GPCRs [1] = biological target: T1, 348 GPCRs (Homo sapiens, UniProt P21917); conditions: 10µM, Favipiravir 100μM
# T1 sequence (P21917 1-419): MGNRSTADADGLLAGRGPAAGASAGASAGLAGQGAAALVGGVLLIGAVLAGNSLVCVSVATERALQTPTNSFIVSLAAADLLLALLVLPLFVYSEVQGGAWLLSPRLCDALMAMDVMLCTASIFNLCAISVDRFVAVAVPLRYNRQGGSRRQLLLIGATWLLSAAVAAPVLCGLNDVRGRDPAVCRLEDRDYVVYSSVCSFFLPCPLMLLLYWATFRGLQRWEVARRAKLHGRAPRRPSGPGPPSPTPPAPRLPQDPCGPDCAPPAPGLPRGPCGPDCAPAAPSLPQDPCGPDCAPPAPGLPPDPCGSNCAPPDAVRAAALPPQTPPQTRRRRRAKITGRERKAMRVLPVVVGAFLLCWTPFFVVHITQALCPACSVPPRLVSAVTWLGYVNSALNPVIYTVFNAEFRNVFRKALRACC
# 348 GPCRs [2] = biological target: T2, 348 GPCRs (Homo sapiens, UniProt P34998)
# T2 construct: expressed in transfected cells; host or cells: HEK293A
# T2 sequence (P34998 24-415): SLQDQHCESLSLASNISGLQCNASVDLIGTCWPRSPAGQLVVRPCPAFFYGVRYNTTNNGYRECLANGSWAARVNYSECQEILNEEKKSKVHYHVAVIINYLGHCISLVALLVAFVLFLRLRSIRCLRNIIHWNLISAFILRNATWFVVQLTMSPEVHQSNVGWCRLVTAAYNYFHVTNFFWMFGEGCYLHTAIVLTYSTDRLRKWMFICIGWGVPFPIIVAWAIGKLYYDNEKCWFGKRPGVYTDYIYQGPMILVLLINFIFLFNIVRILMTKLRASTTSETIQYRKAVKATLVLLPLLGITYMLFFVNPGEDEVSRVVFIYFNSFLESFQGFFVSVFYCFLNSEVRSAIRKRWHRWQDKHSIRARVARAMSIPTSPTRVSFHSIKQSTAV
# 348 GPCRs [3] = biological target: T3, 348 GPCRs (Homo sapiens, UniProt P35408); conditions: 10µM, Favipiravir 100μM
# T3 construct: expressed in transfected cells; host or cells: HEK293A
# 348 GPCRs [4] = biological target: T4, 348 GPCRs (Homo sapiens, UniProt P41968)
# T4 construct: expressed in transfected cells; host or cells: HEK293A
# 348 GPCRs [5] = biological target: T5, 348 GPCRs (Homo sapiens, UniProt P47901)
# T5 construct: expressed in transfected cells; host or cells: HEK293A
# T5 sequence (P47901 1-424): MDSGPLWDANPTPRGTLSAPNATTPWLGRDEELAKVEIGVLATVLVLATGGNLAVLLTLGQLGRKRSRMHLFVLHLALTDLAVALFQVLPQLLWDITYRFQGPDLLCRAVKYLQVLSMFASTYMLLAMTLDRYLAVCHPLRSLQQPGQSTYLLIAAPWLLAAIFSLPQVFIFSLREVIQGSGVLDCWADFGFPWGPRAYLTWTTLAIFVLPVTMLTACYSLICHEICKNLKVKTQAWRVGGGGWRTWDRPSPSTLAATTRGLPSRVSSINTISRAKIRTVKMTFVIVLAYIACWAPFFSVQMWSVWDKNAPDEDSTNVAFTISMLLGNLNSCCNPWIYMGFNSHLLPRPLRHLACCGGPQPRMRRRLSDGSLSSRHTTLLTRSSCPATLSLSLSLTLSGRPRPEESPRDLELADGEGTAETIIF
# 348 GPCRs [6] = biological target: T6, 348 GPCRs (Homo sapiens, UniProt Q14416); conditions: 10µM, Favipiravir 100μM
# T6 construct: expressed in transfected cells; host or cells: HEK293A
# 348 GPCRs [7] = biological target: T7, 348 GPCRs (Homo sapiens, UniProt Q8NGU9); conditions: 10µM, Favipiravir 100μM
# T7 construct: expressed in transfected cells; host or cells: HEK293A
# 348 GPCRs [8] = biological target: T8, 348 GPCRs (Homo sapiens, UniProt Q8WXD0); conditions: RXFP2 (relaxin/insulin-like family peptide receptor 2); 10µM, Favipiravir 100μM
# T8 construct: expressed in transfected cells; host or cells: HEK293A
# 348 GPCRs [9] = biological target: T9, 348 GPCRs (Homo sapiens, UniProt Q92847); conditions: 10µM, Favipiravir 100μM
# T9 construct: expressed in transfected cells; host or cells: HEK293A
# 348 GPCRs [10] = biological target: T10, 348 GPCRs (Homo sapiens, UniProt Q9BZJ6)
# T10 construct: expressed in transfected cells; host or cells: HEK293A
# 348 GPCRs [11] = biological target: T11, 348 GPCRs (Homo sapiens, UniProt Q9GZQ6); conditions: 10µM, Favipiravir 100μM
# T11 construct: expressed in transfected cells; host or cells: HEK293A
# 348 GPCRs [12] = biological target: T12, 348 GPCRs (Homo sapiens, UniProt Q9Y653)
# T12 construct: expressed in transfected cells; host or cells: HEK293A
# [13] = D4 (dopamine receptor D4), read-out: % GPCR activation compared to TPA
# [14] = GPCR CRHR1 (corticotropin releasing hormone receptor 1), read-out: % GPCR activation compared to TPA
# [15] = EP4 (prostaglandin E receptor 4), read-out: % GPCR activation compared to TPA
# [16] = GPCR MC3R (melanocortin 3 receptor), read-out: % GPCR activation compared to TPA
# [17] = GPCR V1B (arginine vasopressin receptor 1B), read-out: % GPCR activation compared to TPA
# [18] = GRM2 (glutamate metabotropic receptor 2), read-out: % GPCR activation compared to TPA
# [19] = GPR150 (G protein-coupled receptor 150), read-out: % GPCR activation compared to TPA
# [20] = GHSR (growth hormone secretagogue receptor), read-out: % GPCR activation compared to TPA
# [21] = GPCR GPR63 (G Protein-Coupled Receptor 63), read-out: % GPCR activation compared to TPA
# [22] = NPFFR1 (neuropeptide FF receptor 1), read-out: % GPCR activation compared to TPA
# [23] = GPCR GPR56 (G protein-coupled receptor 56), read-out: % GPCR activation compared to TPA
# [24] = read-out: % GPCR activation compared to TPA, D4 (dopamine receptor D4)
# [25] = read-out: % GPCR activation compared to TPA, GPCR CRHR1 (corticotropin releasing hormone receptor 1)
# [26] = read-out: % GPCR activation compared to TPA, EP4 (prostaglandin E receptor 4)
# [27] = read-out: % GPCR activation compared to TPA, GPCR MC3R (melanocortin 3 receptor)
# [28] = read-out: % GPCR activation compared to TPA, GPCR V1B (arginine vasopressin receptor 1B)
# [29] = read-out: % GPCR activation compared to TPA, GRM2 (glutamate metabotropic receptor 2)
# [30] = read-out: % GPCR activation compared to TPA, GPR150 (G protein-coupled receptor 150)
# [31] = read-out: % GPCR activation compared to TPA, GHSR (growth hormone secretagogue receptor)
# [32] = read-out: % GPCR activation compared to TPA, GPCR GPR63 (G Protein-Coupled Receptor 63)
# [33] = read-out: % GPCR activation compared to TPA, NPFFR1 (neuropeptide FF receptor 1)
# [34] = read-out: % GPCR activation compared to TPA, GPCR GPR56 (G protein-coupled receptor 56)
# T8 sequence (Q8WXD0 whole entry): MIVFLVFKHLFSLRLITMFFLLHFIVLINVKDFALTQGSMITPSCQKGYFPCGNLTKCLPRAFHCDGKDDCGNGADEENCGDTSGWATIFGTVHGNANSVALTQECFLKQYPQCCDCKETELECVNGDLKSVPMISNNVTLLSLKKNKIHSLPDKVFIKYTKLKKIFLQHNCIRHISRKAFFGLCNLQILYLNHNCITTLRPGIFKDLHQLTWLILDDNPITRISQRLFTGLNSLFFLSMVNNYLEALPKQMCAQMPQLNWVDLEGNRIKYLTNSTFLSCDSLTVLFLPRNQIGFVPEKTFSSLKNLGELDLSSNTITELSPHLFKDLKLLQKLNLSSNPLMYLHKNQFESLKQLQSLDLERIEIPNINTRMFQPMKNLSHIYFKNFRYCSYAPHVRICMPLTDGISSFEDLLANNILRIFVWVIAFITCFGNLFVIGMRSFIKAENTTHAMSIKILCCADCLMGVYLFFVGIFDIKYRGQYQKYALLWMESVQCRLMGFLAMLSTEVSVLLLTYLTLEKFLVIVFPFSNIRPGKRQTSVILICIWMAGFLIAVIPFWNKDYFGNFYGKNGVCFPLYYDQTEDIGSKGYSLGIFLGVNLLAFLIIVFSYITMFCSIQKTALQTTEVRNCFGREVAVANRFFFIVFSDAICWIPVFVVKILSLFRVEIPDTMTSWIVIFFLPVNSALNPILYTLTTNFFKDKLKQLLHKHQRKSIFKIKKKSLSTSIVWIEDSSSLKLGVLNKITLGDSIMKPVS
# T6 sequence (Q14416 19-872): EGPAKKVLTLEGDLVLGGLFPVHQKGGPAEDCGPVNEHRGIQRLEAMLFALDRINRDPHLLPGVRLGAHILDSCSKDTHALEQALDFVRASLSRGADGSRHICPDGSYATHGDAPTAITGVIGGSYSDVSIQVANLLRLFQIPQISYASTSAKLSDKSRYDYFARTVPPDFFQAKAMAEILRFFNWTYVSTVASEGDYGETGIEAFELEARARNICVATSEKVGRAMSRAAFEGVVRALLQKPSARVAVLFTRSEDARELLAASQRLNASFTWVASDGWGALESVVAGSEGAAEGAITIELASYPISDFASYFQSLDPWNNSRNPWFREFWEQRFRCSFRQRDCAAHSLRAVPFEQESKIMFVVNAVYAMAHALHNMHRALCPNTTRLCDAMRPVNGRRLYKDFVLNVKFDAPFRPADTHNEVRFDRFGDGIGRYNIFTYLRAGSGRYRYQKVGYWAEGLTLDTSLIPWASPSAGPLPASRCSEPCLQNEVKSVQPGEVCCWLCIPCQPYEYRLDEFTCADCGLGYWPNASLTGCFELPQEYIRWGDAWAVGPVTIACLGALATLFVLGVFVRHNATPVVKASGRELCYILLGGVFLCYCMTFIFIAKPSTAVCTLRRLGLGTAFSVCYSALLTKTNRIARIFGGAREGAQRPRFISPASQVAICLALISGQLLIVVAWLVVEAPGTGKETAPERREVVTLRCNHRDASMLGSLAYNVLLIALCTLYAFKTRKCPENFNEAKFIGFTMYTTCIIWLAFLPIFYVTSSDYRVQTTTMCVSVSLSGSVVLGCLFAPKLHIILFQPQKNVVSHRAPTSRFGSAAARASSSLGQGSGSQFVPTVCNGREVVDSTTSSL
# T3 sequence (P35408 whole entry): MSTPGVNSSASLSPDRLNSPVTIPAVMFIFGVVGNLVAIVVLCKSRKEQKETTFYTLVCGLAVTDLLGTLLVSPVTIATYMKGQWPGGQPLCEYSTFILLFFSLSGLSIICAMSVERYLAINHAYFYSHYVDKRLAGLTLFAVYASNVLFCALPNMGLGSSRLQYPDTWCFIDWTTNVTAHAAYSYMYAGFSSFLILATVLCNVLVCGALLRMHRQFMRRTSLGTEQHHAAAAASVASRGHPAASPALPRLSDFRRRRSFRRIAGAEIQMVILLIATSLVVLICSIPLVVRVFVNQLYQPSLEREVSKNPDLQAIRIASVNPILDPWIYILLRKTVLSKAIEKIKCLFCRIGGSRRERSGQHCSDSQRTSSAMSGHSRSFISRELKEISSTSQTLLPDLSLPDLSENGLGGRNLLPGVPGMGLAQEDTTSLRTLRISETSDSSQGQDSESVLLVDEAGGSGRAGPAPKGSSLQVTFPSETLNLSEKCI
# T7 sequence (Q8NGU9 whole entry): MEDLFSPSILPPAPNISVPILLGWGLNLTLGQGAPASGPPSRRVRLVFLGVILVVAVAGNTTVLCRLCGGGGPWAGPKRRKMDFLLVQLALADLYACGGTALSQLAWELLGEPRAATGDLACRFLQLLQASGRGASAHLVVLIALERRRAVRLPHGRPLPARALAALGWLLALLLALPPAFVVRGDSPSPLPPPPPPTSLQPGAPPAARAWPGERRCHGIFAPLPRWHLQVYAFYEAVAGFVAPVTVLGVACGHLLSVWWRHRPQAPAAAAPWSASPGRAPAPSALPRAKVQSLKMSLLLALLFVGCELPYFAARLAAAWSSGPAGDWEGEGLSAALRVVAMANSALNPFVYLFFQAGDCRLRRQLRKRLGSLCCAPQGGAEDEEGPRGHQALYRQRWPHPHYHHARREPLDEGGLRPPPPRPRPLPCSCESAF
# T12 sequence (Q9Y653 26-693): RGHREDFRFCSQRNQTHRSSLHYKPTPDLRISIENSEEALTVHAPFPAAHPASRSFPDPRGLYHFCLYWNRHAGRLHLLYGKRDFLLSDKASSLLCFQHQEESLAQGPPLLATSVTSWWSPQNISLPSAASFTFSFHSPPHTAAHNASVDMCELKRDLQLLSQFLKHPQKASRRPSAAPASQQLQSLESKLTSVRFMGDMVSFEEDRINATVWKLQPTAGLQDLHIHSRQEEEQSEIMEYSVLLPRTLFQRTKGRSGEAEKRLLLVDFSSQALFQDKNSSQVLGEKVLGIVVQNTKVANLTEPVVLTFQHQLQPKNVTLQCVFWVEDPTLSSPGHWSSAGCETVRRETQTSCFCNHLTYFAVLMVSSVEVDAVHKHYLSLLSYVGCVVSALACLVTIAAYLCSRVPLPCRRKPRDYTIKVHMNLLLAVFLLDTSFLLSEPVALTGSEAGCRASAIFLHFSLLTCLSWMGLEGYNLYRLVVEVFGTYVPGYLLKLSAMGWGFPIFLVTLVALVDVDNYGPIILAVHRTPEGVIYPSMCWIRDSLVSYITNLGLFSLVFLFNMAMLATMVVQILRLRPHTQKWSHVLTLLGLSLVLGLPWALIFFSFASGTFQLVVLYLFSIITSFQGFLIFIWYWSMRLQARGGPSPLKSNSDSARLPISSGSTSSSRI
# T11 sequence (Q9GZQ6 whole entry): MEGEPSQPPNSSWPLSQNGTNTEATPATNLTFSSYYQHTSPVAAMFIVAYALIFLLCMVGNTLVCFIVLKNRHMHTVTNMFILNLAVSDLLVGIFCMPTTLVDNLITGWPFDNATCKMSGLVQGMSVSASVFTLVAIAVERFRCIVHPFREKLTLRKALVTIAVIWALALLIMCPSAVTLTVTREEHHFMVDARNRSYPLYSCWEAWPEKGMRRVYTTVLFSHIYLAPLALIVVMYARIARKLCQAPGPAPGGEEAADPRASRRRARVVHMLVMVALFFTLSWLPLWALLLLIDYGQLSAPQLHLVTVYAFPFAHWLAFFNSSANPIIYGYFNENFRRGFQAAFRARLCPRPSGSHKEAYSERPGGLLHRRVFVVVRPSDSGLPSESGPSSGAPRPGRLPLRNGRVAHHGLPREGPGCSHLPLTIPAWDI
# T10 sequence (Q9BZJ6 whole entry): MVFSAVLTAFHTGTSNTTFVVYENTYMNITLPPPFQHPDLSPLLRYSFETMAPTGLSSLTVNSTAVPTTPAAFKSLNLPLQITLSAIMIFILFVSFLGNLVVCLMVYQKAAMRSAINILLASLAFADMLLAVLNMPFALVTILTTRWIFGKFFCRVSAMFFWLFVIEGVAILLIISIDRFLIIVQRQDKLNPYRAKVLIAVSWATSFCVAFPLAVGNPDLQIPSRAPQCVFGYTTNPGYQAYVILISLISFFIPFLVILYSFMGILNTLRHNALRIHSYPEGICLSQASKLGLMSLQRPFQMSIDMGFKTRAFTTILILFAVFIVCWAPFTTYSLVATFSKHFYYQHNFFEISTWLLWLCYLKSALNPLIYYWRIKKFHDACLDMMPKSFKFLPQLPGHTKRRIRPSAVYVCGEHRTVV
# T9 sequence (Q92847 whole entry): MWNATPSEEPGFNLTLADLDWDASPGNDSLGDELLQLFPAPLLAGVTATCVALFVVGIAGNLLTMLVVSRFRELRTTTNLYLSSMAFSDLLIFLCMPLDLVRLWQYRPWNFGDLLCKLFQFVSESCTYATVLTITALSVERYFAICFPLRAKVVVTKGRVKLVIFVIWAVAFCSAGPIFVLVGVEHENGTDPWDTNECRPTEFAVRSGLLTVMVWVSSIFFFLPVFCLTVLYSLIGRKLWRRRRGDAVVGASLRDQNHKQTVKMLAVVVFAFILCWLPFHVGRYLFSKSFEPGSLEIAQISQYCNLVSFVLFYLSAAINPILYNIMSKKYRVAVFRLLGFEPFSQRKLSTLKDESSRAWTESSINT
# T4 sequence (P41968 whole entry): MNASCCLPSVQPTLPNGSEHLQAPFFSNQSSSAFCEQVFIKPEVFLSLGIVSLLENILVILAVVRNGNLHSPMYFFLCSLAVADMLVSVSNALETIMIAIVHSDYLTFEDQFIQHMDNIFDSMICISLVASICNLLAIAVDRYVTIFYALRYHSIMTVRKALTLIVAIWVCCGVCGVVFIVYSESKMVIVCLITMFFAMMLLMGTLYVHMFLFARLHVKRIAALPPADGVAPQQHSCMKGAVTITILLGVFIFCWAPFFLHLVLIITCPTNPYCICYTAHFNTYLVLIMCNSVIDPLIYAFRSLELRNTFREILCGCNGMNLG
SMILES,activation at 100 µM (348 GPCRs [1]; [13]) [%],activation at 10 µM (348 GPCRs [2]; [14]) [%],activation at 10 µM (348 GPCRs [3]; [15]) [%],activation at 10 µM (348 GPCRs [4]; [16]) [%],activation at 10 µM (348 GPCRs [5]; [17]) [%],activation at 10 µM (348 GPCRs [6]; [18]) [%],activation at 100 µM (348 GPCRs [7]; [19]) [%],% GPCR activation compared to TPA (348 GPCRs [8]) [%],activation at 10 µM (348 GPCRs [9]; [20]) [%],activation at 10 µM (348 GPCRs [10]; [21]) [%],activation at 10 µM (348 GPCRs [11]; [22]) [%],activation at 10 µM (348 GPCRs [12]; [23]) [%],activation at 100 µM (348 GPCRs [1]; [24]) [%],activation at 10 µM (348 GPCRs [2]; [25]) [%],activation at 10 µM (348 GPCRs [3]; [26]) [%],activation at 10 µM (348 GPCRs [4]; [27]) [%],activation at 10 µM (348 GPCRs [5]; [28]) [%],activation at 10 µM (348 GPCRs [6]; [29]) [%],activation at 100 µM (348 GPCRs [7]; [30]) [%],activation at 10 µM (348 GPCRs [9]; [31]) [%],also measured
N#C[C@@]1(c2ccc3c(N)ncnn23)O[C@H](CO)[C@@H](O)[C@H]1O [GS441524],3.32,0.467,-2.87,2.26,0.627,0.673,0.708,-1.305,-4.16,2.45,1.07,-3.73,,,,,,,,,
CCC(CC)COC(=O)[C@H](C)N[P@](=O)(OC[C@H]1O[C@@](C#N)(c2ccc3c(N)ncnn23)[C@H](O)[C@@H]1O)Oc1ccccc1 [remdesivir],,,,,,,,0.3691,,,,,4.84,2.05,4.74,1.7,1.47,1.1,6.96,12.2,activation at 10 µM (348 GPCRs [10]; [32]): 1.1%; activation at 10 µM (348 GPCRs [11]; [33]): -0.49%; activation at 10 µM (348 GPCRs [12]; [34]): -0.797%
CC(C)OC(=O)[C@H](C)N[P@](=O)(OC[C@H]1O[C@@H](n2ccc(=O)[nH]c2=O)[C@](C)(F)[C@@H]1O)Oc1ccccc1 [sofosbuvir],,,,,,,,-1.511,,,,,-2.21,1.15,0.58,-3.13,-0.149,-2.27,0.239,-0.354,activation at 10 µM (348 GPCRs [10]; [32]): 1.22%; activation at 10 µM (348 GPCRs [11]; [33]): -1.9%; activation at 10 µM (348 GPCRs [12]; [34]): 0.191%

# Further lines, with some results ahead:
activation at 100 µM (348 GPCRs [1]; [13]) [%],activation at 10 µM (348 GPCRs [2]; [14]) [%],activation at 10 µM (348 GPCRs [3]; [15]) [%],activation at 10 µM (348 GPCRs [4]; [16]) [%],activation at 10 µM (348 GPCRs [5]; [17]) [%],activation at 10 µM (348 GPCRs [6]; [18]) [%],activation at 100 µM (348 GPCRs [7]; [19]) [%],% GPCR activation compared to TPA (348 GPCRs [8]) [%],activation at 10 µM (348 GPCRs [9]; [20]) [%],activation at 10 µM (348 GPCRs [10]; [21]) [%],activation at 10 µM (348 GPCRs [11]; [22]) [%],activation at 10 µM (348 GPCRs [12]; [23]) [%],SMILES,activation at 100 µM (348 GPCRs [1]; [24]) [%],activation at 10 µM (348 GPCRs [2]; [25]) [%],activation at 10 µM (348 GPCRs [3]; [26]) [%],activation at 10 µM (348 GPCRs [4]; [27]) [%],activation at 10 µM (348 GPCRs [5]; [28]) [%],activation at 10 µM (348 GPCRs [6]; [29]) [%],activation at 100 µM (348 GPCRs [7]; [30]) [%],activation at 10 µM (348 GPCRs [9]; [31]) [%],also measured
2.6,,-1.55,,,-0.721,-0.462,-0.6733,-3.33,,-3.31,,"NC(=O)c1nc(F)cnc1O [favipiravir, 6-fluoro-3-hydroxy-2-pyrazinecarboxamide]",,,,,,,,,"activation at 100 µM (348 GPCRs [2]; GPCR CRHR1 (corticotropin releasing hormone receptor 1), 100μM, read-out: % GPCR activation compared to TPA): -0.37%; activation at 100 µM (348 GPCRs [4]; GPCR MC3R (melanocortin 3 receptor), 100μM, read-out: % GPCR activation compared to TPA): 0.3%; activation at 100 µM (348 GPCRs [5]; GPCR V1B (arginine vasopressin receptor 1B), 100μM, read-out: % GPCR activation compared to TPA): 1.12%; activation at 100 µM (348 GPCRs [10]; GPCR GPR63 (G Protein-Coupled Receptor 63), 100μM, read-out: % GPCR activation compared to TPA): -0.607%; activation at 100 µM (348 GPCRs [12]; GPCR GPR56 (G protein-coupled receptor 56), 100μM, read-out: % GPCR activation compared to TPA): -0.74%"
-1.43,1.11,0.931,-4.7,-0.66,0.98,-6.13,-1.679,0.166,-0.167,-0.462,-2.2,CC(C)C(=O)OC[C@H]1O[C@@H](n2ccc(NO)nc2=O)[C@H](O)[C@@H]1O [molnupiravir],,,,,,,,,
